Measurements taken from publication PMC6647725 (Analytical and Bioanalytical Chemistry, 2019).

Columns and labels:
CDK6 = conditions: cited from earlier work
[1] = Plasma pharmacokinetics in mice after oral administration; assay type: in vivo, mouse (FVB); conditions: FVB, po; mouse plasma, 10 mg/kg orally administered, t = 2 h; read-out: plasma concentration of representative sample
Method: This method was developed to support pharmacokinetic and tissue distribution studies of the CDK4/6 inhibitors in mice (FVB background). These studies were done separately for each drug. Animal housing and studies were conducted according to institutional guidelines complying with Dutch and European Union legislation (approval number from The Dutch Central Animal Testing Committee: AVD301002016595). […] Approximately 50 μL of blood was collected from the tip of the tail at several time points, except at the last one, when 500–1000 μL of blood was collected by cardiac puncture under isoflurane anesthesia. […] Mice were sacrificed by cervical dislocation and the organs were collected and weighed. Plasma was obtained using sodium heparin as anticoagulant after centrifugation at 9000g, 4 °C, for 6 min. When necessary, 10 μL of mouse plasma was diluted with 40 μL of human plasma. The tissue homogenates were prepared according to the procedure described in the “Tissue homogenate preparation” section. Plasma and tissue homogenate samples were stored at − 20 and − 70 °C, respectively, until the LC-MS/MS analysis was performed.

[2] = Stability in tissue homogenates; assay type: in vitro ADME, mouse; conditions: room temperature and ice/water bath
Method: (§1) The stability of each analyte was investigated in all the previously mentioned matrices. For plasma (both human and mouse), the stability was determined in triplicate at two concentration levels, QC L and QC H, whereas for mouse tissue homogenates only at QC M (except the brain in one stability condition). For all matrices, the following stability conditions were assessed: short term at room temperature (RT), long term at − 20 °C, and after 3 freeze-thaw (F/T) cycles at − 20 °C/RT. Furthermore, for tissue homogenates, the short-term stability in ice-water, long-term stability at − 70 °C, and F/T stability at − 70 °C/ice-water were also evaluated. Additionally, the stability in the final extract was tested. For this, the QC L and QC H final extracts from the plasma, brain, and spleen and the QC M final extract from the liver, kidney and small intestine were stored at 4–8 °C up to 3 days. Lastly, the stability of the stock solutions at − 20 °C was investigated.

[3] = Stability of stock solutions at − 20 °C; assay type: physicochemical; conditions: 1 mg/mL stock solution, storage at − 20 °C
Method: as §1

CDK4 = conditions: cited from earlier work

Question: Which IC50 (CDK6) does the source give for `CC(=O)c1c(C)c2cnc(Nc3ccc(N4CCNCC4)cn3)nc2n(C2CCCC2)c1=O` [Palbociclib] here?
Answer: 15 nM

Question: What about the concentration at 2 h [1] of the same compound?
Answer: 311 ng/mL

Question: And the “time stable in kidney and spleen homogenates” value [2]?
Answer: at least 3 h

Question: What about the “stability of stock solutions (time stable)” value [3] of the same compound?
Answer: at least 12 months
